Assay results as given in ChEMBL document CHEMBL4382204 (Eur J Med Chem, 2018).
Active and inactive are the calls of the source. No cut-off for these calls is given here.

Tests used:
[1] = system: HL-60; test: Antiproliferative activity in human HL60 cells after 72 hrs by CCK8 assay; type: functional; conditions: HL-60, 72 h
[2] = target: Cytoplasmic tyrosine-protein kinase BMX (Homo sapiens) (UniProt P51813); test: Inhibition of wild type C-terminal FLAG-tagged human TEL fused BMX (unknown origin) transfected in mouse BAF3 cells assessed as growth inhibition after 72 hrs by CCK8 assay; type: cell-based
[3] = target: Tyrosine-protein kinase ABL1 (Homo sapiens, UniProt P00519, T315I); test: Inhibition of active wild type His-tagged ABL T315I mutant (229 to 500 residues) (unknown origin) expressed in baculovirus infected sf9 cells using ABLtide as substrate after 1 hr by ADP-Glo assay
[4] = target: Discoidin domain-containing receptor 2 (Homo sapiens) (UniProt Q16832); test: Inhibition of BCR fused DDR2 (unknown origin) transfected in mouse BAF3 cells assessed as growth inhibition after 72 hrs by CCK8 assay; type: cell-based
[5] = target: Platelet-derived growth factor receptor alpha (Homo sapiens) (UniProt P16234); test: Inhibition of wild type C-terminal FLAG-tagged human TEL fused PDGFRalpha (unknown origin) transfected in mouse BAF3 cells assessed as growth inhibition after 72 hrs by CCK8 assay; type: cell-based
[6] = target: T1, Bcr/Abl fusion protein (Homo sapiens) (UniProt P00519+P11274); test: Inhibition of BCR/ABL in human MEG01 cells assessed as inhibition of ErK phosphorylation up to 0.3 uM after 1 hr by immunoblotting analysis; type: cell-based
[7] = system: MEG-01; test: Cell cycle arrest in human MEG01 cells assessed as accumulation at G0/G1 phase up to 0.3 uM after 24 hrs by propidium iodide/RNase staining based flow cytometric analysis; type: functional
[8] = Antiproliferative activity in CHO cells after 72 hrs by CCK8 assay; type: cell-based, Cricetulus griseus; conditions: chinese hamster
[9] = target: Receptor-type tyrosine-protein kinase FLT3 (Homo sapiens) (UniProt P36888); test: Inhibition of wild type C-terminal FLAG-tagged human TEL fused FLT3 (unknown origin) transfected in mouse BAF3 cells assessed as growth inhibition after 72 hrs by CCK8 assay; type: cell-based
[10] = Apparent volume of distribution during terminal phase in mouse at 1 mg/kg, iv by LC-MS/MS analysis; type: ADME, organism-based; conditions: in vivo, read-out: Vz
[11] = system: Bcr/Abl fusion protein (Homo sapiens), P00519+P11274 [V299L]; conditions: BaF3
[12] = target: Vascular endothelial growth factor receptor 2 (Homo sapiens) (UniProt P35968); test: Inhibition of wild type C-terminal FLAG-tagged human TEL fused VEGFR2 (unknown origin) transfected in mouse BAF3 cells assessed as growth inhibition after 72 hrs by CCK8 assay; type: cell-based
[13] = system: K562; test: Antiproliferative activity in human K562 cells after 72 hrs by CCK8 assay; type: functional; conditions: K562, 72 h
[14] = target: Fibroblast growth factor receptor 3 (Homo sapiens) (UniProt P22607); test: Inhibition of wild type C-terminal FLAG-tagged human TEL fused FGFR3 (unknown origin) transfected in mouse BAF3 cells assessed as growth inhibition after 72 hrs by CCK8 assay; type: cell-based
[15] = target: Fibroblast growth factor receptor 1 (Homo sapiens) (UniProt P11362); test: Inhibition of wild type C-terminal FLAG-tagged human TEL fused FGFR1 (unknown origin) transfected in mouse BAF3 cells assessed as growth inhibition after 72 hrs by CCK8 assay; type: cell-based
[16] = target: T2, Tyrosine-protein kinase ABL1 (Homo sapiens, UniProt P00519); conditions: BaF3
Description: Inhibition of wild type C-terminal FLAG-tagged human TEL fused ABL (unknown origin) transfected in mouse BAF3 cells assessed as growth inhibition after 72 hrs by CCK8 assay

[17] = system: BaF3; test: Induction of apoptosis in mouse BAF3 cells expressing BCR/ABL T315I mutant assessed as cleaved PARP level up to 0.3 uM after 24 hrs by immunoblotting analysis; type: functional, cell-based
[18] = system: KU812 cell line; test: Cell cycle arrest in human KU812 cells assessed as accumulation at G0/G1 phase up to 0.3 uM after 24 hrs by propidium iodide/RNase staining based flow cytometric analysis; type: functional
[19] = system: Bcr/Abl fusion protein (Homo sapiens), P00519+P11274 [T315I]; conditions: BaF3
[20] = MRT (0 to t) in mouse at 10 mg/kg, po by LC-MS/MS analysis; type: ADME, organism-based; conditions: in vivo
[21] = Antiproliferative activity in mouse BAF3 cells after 72 hrs by CCK8 assay; type: cell-based
[22] = Cmax in mouse at 10 mg/kg, po by LC-MS/MS analysis; type: ADME, organism-based; design: dose 10 mg/kg, route oral; conditions: in vivo
[23] = AUC (0 to infinity) in Sprague-Dawley rat at 1 mg/kg, iv by LC-MS/MS analysis; type: ADME, organism-based; design: dose 1 mg/kg, time infinity, route intravenous; conditions: in vivo
[24] = Cmax in Sprague-Dawley rat at 1 mg/kg, iv by LC-MS/MS analysis; type: ADME, organism-based; design: dose 1 mg/kg, route intravenous; conditions: in vivo
[25] = target: T2, Tyrosine-protein kinase ABL1; test: Inhibition of inactive wild type His-tagged ABL (229 to 500 residues) (unknown origin) expressed in baculovirus infected sf9 cells assessed as reduction in autophosphorylation preincubated for 60 mins followed by ATP addition measured after 8 hrs by ADP-Glo assay
[26] = AUC (0 to infinity) in mouse at 1 mg/kg, iv by LC-MS/MS analysis; type: ADME, organism-based; design: dose 1 mg/kg, route intravenous, time infinity; conditions: in vivo
[27] = system: BaF3; test: Induction of apoptosis in mouse BAF3 cells expressing BCR/ABL T315I mutant assessed as cleaved caspase-3 level up to 0.3 uM after 24 hrs by immunoblotting analysis; type: functional, cell-based
[28] = system: MEG-01; test: Induction of apoptosis in human MEG01 cells assessed as cleaved caspase-3 level up to 0.3 uM after 24 hrs by immunoblotting analysis; type: functional, cell-based
[29] = target: T1, Bcr/Abl fusion protein (Homo sapiens); test: Inhibition of BCR/ABL in human K562 cells assessed as inhibition of STAT5 phosphorylation up to 0.3 uM after 1 hr by immunoblotting analysis; type: cell-based
[30] = Tmax in mouse at 10 mg/kg, po by LC-MS/MS analysis; type: ADME, organism-based; conditions: in vivo
[31] = Apparent clearance during terminal phase in Sprague-Dawley rat at 1 mg/kg, iv by LC-MS/MS analysis; type: ADME, organism-based; conditions: in vivo
[32] = system: BaF3; test: Antitumor activity against mouse BAF3 cells expressing BCR/ABL T315I mutant allografted in nu/nu mouse assessed as tumor growth inhibition at 50 mg/kg, po administered via gavage for 14 days relative to control; type: functional; conditions: 336 h, read-out: TGI
[33] = Tmax in mouse at 1 mg/kg, iv by LC-MS/MS analysis; type: ADME, organism-based; conditions: in vivo
[34] = target: Bcr/Abl fusion protein (Homo sapiens, UniProt P00519); test: (§1) Inhibition of BCR/ABL in human K562 cells assessed as inhibition of BCR/ABL autophosphorylation at Y245 site after 1 hr by immunoblotting analysis; type: cell-based
[35] = target: T1, Bcr/Abl fusion protein (Homo sapiens); test: as §1; type: cell-based
[36] = MRT (0 to t) in Sprague-Dawley rat at 10 mg/kg, po by LC-MS/MS analysis; type: ADME, organism-based; conditions: in vivo
[37] = Tmax in Sprague-Dawley rat at 1 mg/kg, iv by LC-MS/MS analysis; type: ADME, organism-based; conditions: in vivo
[38] = Half life in mouse at 10 mg/kg, po by LC-MS/MS analysis; type: ADME, organism-based; conditions: in vivo

Fibroblast growth factor receptor 3 (Homo sapiens), sequence (P22607 23-806 limits assumed): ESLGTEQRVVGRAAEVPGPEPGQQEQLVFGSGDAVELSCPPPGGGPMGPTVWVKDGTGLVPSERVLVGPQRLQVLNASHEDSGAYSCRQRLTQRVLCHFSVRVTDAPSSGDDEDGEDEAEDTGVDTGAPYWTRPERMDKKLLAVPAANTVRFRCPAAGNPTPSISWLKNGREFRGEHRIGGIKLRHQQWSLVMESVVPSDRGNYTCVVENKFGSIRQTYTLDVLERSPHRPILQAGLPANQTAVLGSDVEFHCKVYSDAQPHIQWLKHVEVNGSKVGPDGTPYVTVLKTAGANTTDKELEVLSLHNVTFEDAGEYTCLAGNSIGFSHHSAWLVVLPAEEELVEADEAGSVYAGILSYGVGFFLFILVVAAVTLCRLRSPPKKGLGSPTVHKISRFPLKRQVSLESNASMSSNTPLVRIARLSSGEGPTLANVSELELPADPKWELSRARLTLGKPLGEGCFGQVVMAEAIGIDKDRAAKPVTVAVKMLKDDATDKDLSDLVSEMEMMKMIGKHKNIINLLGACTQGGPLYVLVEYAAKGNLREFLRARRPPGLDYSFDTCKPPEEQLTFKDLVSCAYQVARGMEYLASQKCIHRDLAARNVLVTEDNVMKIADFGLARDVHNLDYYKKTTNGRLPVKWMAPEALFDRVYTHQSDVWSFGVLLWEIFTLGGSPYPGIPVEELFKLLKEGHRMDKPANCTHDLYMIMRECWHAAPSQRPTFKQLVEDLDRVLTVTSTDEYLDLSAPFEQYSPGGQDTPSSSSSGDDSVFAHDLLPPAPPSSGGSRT
Fibroblast growth factor receptor 1 (Homo sapiens), sequence (P11362 22-822 limits assumed): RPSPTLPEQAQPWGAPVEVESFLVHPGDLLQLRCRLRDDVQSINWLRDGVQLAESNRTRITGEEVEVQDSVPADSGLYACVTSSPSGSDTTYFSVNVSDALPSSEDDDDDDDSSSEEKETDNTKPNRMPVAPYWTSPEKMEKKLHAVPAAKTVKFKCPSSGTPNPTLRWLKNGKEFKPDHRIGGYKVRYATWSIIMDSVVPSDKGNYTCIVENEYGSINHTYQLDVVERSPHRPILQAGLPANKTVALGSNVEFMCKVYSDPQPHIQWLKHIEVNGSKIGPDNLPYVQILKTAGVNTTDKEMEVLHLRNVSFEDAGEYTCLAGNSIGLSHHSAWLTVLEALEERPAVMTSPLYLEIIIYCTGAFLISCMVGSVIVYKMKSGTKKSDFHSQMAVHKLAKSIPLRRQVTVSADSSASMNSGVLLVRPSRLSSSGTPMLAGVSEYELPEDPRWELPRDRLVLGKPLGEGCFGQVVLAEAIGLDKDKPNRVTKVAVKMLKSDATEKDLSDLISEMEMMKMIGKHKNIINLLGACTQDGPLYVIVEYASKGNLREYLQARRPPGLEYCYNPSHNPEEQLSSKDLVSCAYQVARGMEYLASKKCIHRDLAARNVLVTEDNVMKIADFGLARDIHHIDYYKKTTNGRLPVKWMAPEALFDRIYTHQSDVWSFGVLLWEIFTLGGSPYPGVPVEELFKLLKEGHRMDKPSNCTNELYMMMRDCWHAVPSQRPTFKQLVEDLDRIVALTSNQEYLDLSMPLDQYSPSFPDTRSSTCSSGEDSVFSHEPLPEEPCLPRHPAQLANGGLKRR
Vascular endothelial growth factor receptor 2 (Homo sapiens), sequence (P35968 whole entry, the tested form may be a part): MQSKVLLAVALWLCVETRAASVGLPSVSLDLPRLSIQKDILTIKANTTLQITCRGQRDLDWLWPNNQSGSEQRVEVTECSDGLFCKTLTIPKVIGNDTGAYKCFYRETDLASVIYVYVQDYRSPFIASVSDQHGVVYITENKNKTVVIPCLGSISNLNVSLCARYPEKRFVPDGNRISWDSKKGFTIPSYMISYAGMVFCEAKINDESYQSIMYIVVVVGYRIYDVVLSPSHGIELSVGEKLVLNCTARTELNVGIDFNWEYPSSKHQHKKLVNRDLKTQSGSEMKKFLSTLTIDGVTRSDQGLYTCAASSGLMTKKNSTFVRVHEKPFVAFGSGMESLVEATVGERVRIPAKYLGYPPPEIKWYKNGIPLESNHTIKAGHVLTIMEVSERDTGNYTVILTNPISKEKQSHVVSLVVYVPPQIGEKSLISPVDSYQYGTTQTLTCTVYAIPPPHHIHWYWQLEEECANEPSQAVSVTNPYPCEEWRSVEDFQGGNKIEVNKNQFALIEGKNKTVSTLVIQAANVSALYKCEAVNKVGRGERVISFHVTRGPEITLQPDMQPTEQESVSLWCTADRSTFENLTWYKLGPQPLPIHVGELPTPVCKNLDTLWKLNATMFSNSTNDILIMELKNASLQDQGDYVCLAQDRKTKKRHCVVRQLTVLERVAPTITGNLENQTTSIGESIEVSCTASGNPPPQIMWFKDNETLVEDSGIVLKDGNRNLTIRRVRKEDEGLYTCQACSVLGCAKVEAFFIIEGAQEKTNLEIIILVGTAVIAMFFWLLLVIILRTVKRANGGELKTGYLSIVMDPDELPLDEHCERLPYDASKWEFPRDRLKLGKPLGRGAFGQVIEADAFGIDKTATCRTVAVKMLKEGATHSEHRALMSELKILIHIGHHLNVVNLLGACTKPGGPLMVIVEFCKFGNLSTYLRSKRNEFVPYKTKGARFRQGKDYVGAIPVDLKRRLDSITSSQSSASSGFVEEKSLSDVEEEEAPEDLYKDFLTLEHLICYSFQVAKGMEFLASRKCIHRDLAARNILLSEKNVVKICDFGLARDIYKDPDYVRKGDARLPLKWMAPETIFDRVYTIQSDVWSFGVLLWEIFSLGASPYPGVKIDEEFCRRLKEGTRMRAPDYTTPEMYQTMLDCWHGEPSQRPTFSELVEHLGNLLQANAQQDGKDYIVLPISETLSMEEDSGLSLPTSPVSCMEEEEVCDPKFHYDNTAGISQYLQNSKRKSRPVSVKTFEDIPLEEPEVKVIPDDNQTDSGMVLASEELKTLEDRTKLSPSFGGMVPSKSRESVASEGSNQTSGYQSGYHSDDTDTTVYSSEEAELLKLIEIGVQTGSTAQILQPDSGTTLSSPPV
Platelet-derived growth factor receptor alpha (Homo sapiens), sequence (P16234 whole entry, the tested form may be a part): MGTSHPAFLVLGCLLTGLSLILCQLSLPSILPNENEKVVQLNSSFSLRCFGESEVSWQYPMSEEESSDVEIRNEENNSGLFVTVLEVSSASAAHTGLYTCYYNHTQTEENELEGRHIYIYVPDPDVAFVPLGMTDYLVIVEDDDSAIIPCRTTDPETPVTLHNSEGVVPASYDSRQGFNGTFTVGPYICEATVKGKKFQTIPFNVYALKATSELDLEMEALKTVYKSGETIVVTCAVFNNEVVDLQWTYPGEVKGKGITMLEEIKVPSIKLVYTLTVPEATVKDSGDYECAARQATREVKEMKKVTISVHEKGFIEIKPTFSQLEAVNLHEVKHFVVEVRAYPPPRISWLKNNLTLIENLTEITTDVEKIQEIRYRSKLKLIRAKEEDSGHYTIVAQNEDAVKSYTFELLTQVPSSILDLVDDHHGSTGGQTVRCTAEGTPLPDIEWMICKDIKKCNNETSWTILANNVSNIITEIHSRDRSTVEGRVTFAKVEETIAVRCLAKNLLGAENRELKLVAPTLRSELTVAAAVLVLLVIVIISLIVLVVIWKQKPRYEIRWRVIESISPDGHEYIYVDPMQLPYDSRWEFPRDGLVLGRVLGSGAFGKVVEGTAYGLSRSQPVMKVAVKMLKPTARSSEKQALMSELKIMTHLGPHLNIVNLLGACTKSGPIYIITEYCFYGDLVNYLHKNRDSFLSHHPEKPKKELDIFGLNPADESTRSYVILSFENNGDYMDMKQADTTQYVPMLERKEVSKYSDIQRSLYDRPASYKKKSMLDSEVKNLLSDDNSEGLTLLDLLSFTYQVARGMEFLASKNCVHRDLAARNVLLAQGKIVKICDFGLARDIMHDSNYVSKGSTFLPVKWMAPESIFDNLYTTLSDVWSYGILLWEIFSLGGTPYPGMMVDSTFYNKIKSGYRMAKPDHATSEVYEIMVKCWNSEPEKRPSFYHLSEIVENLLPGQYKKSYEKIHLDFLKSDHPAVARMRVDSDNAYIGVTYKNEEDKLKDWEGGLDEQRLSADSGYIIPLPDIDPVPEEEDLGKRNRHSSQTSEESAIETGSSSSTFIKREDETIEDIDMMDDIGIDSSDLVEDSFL
Receptor-type tyrosine-protein kinase FLT3 (Homo sapiens), sequence (P36888 whole entry, the tested form may be a part): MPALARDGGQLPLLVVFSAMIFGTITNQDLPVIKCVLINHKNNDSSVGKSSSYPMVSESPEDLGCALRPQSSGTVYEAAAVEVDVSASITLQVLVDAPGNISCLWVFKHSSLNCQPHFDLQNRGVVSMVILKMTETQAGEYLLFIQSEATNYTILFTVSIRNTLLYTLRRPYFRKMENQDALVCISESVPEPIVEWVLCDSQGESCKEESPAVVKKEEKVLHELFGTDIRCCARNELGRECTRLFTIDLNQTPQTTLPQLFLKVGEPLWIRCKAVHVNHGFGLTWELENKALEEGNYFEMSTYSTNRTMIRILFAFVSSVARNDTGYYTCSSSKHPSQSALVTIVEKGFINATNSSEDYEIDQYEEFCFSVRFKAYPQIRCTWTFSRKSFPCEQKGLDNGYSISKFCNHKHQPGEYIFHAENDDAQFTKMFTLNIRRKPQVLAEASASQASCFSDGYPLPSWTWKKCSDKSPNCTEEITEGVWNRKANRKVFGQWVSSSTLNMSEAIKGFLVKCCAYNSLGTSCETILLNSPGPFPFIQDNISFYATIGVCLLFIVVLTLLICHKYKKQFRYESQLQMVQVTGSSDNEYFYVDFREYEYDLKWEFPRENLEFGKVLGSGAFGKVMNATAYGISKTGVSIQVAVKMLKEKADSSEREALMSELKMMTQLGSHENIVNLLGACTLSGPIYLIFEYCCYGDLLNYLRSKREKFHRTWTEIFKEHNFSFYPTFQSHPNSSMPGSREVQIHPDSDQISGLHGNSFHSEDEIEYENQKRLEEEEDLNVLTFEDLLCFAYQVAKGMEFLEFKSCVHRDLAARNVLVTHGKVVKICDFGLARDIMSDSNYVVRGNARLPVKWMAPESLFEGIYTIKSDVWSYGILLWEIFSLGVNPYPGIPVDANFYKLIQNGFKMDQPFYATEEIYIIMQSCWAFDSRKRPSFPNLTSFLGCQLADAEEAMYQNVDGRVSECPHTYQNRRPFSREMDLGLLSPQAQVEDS

## CN1CCN(Cc2ccc(NC(=O)CCSc3ccc4c(/C=C/c5ccccn5)n[nH]c4c3)cc2C(F)(F)F)CC1
[1]
  GI50: 870 nM
[2]
  GI50: 2340 nM
[3]
  IC50: 0.2 nM
[4]
  GI50: 1540 nM
[5]
  GI50: 2 nM
[6]
  inhibition: Active
[7]
  Activity: Active
[8]
  GI50 at 72 h: 1120 nM
[9]
  GI50: 4 nM
[10]
  Vd: 45.3 L/kg
[11]
  GI50: 103 nM
[12]
  GI50: 2 nM
[13]
  GI50: 1 nM
[14]
  GI50: 73 nM
[15]
  GI50: 42 nM
[16]
  GI50: < 1 nM
[17]
  Activity: Active
[18]
  Activity: Active
[19]
  GI50: 6 nM
[20]
  MRT last: 3.3 h
[21]
  GI50 at 72 h: 2480 nM
[22]
  Cmax: 87.7 ng/mL
[23]
  AUC(0-inf): 202 ng·h/mL
[24]
  Cmax: 1270 ng/mL
[25]
  IC50: 2 nM
[26]
  AUC(0-inf): 160 ng·h/mL
[27]
  Activity: Active
[28]
  Activity: Active
[29]
  inhibition: Active
[30]
  Tmax: 1 h
[31]
  CLz/F: 85 mL/min/kg
[32]
  inhibition in vivo at 50 mg/kg: 52%
[33]
  Tmax: 1.8 min
[34]
  EC50: < 10 nM
[35]
  inhibition: Dose-dependent effect
[36]
  MRT last: 4.4 h
[37]
  Tmax: 1.2 min
[38]
  half-life: 2 h
